Values quoted from earlier work as cited in paper PMC12333026, “Versatile Imidazole Scaffold with Potent Activity against Multiple Apicomplexan Parasites” (ACS Infectious Diseases, 2025).

Target: PfPKG (Plasmodium falciparum, UniProt Q8I719)
Parameters: method as in number not shown in text
Conditions: enantiomer comparison; recently reported by the authors, ref number not shown in text; cited from earlier work

Chain of PfPKG (Q8I719 whole entry): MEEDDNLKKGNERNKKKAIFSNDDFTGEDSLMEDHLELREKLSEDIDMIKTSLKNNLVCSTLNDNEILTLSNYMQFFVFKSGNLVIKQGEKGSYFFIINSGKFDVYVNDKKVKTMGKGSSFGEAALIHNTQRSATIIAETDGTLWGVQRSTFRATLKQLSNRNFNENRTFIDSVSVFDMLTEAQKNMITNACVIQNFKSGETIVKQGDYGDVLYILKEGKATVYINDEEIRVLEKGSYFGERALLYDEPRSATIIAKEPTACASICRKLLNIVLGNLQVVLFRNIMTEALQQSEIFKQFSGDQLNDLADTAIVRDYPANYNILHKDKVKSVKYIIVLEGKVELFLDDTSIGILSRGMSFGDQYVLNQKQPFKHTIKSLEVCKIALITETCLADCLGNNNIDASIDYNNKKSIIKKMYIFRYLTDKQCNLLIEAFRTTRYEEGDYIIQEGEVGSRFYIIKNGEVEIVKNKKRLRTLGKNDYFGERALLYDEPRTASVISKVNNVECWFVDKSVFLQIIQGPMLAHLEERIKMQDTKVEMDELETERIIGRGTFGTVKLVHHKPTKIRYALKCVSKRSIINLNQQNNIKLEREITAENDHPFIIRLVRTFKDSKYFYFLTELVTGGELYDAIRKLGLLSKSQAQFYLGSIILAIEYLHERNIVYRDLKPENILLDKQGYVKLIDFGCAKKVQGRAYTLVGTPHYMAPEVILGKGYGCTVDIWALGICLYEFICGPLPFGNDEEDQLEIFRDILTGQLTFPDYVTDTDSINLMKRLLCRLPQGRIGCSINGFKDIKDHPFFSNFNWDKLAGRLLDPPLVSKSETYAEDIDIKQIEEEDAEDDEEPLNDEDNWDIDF

For `O=C(c1nccs1)N1CC[C@H](Nc2nccc(-n3cc(C4CC4)nc3-c3ccccc3)n2)C1` [(S)-RY-1-165], the “PfPKG inhibition (in words)” value is listed as “inactive”.
